In patent publication US20150119373A1, “NOVEL BETULINIC ACID DERIVATIVES AS HIV INHIBITORS” (HETERO RESEARCH FOUNDATION, priority 2012, published 2015) one finds inhibition and viability data, which are given here for twelve compounds.

In one series the test system is HIV-1 strain 92HT599. The series can be described thus: Antiviral activity: p24 estimation in MT2 cells infected with HIV-1 strain 92HT599. The following applies: for inhibition at 0.1 µM: read-out: Antiviral activity % inhibition 100 nM; for inhibition at 1 µM: read-out: Antiviral activity % inhibition 1000 nM. The class given is cell-based. On the procedure: MT2 cells were infected with HIV-1 strain 92HT599 (10 TCID 50/30000 cells). The infected cells were plated at the concentration of […] cells per well in 96 well plate. Test compound was added to the micro plate in defined format with the final concentration of DMSO (vehicle) is not more than 1%. Incubation was carried out in CO2 incubator for ˜96 hours for viral infection. At the end of incubation period an aliquot from each well was taken for p24 estimation. The quantitation of p24 is an index for antiviral activity of the compound. Percent inhibition was calculated with reference to control values (vehicle controls).
p-24 estimation was carried out using Advance biosciences kit as per the procedure detailed by supplier.

Series [1] in a line: Cyto-toxicity assay (MTT) in MT2 cells without virus. The class given is cell-based. The following applies: human. On the procedure: For cyto-toxicity assay the same amount of MT2 cells as in antiviral assay without virus was added to the 96 well plates. The cyto-toxicity was measured using MTT reagent in parallel with p24 estimation. The percent viability is calculated in comparison with vehicle control.

The mark [2] stands for this setting: Human immunodeficiency virus 1, 100 nM, MT2 cells, HIV-1 92HT599, ~96 hours, p24.
Setting [3] is: Human immunodeficiency virus 1, 1000 nM, MT2 cells, HIV-1 92HT599, ~96 hours, p24.
The mark [4] stands for this setting: Human immunodeficiency virus 1, MT2, 96 h.

For orientation: inhibition means the share of the control response that was lost under treatment. Usually viability stands for a per cent measure of how many cells are alive, often set against a control.

Read-outs that look alike come from different tables or passages of the source.

Take `CC(C)(CC(=O)O[C@H]1CC[C@]2(C)[C@H]3CC[C@@H]4C5[C@H](C6(C)CC6)CC[C@]5(C(=O)N[C@H]5C[C@@H](C(=O)N6CCOCC6)C5(C)C)CC[C@@]4(C)[C@]3(C)CC[C@H]2C1(C)C)C(=O)O` (stereo partly drawn) [Example 51, 4-(((1R,3aS,5aR,5bR,7aR,9S,11aR,11bR,13aR)-3a-(((1S,3R)-2,2-dimethyl-3-(morpholine-4-carbonyl)cyclobutyl)carbamoyl)-5a,5b,8,8,11a-pentamethyl-1-(1-methylcyclopropyl)icosahydro-1H-cyclopenta[a]chrysen-9-yl)oxy)-2,2-dimethyl-4-oxobutanoic acid]: the inhibition at 0.1 µM in the series with HIV-1 strain 92HT599 (setting [2]) was 100%. Also, the inhibition at 1 µM in the series on HIV-1 strain 92HT599 (setting [3]) was 100%. In series [1], this compound came in with a viability at 100 nM of 85% and a viability at 1000 nM of 83%.
`CCN1CCN(C2CCN(C(=O)[C@]34CC[C@@H](C5(C)CC5)[C@@H]3[C@H]3CC[C@@H]5[C@@]6(C)CC[C@H](OC(=O)[C@H]7C[C@@H](C(=O)O)C7(C)C)C(C)(C)[C@@H]6CC[C@@]5(C)[C@]3(C)CC4)CC2)CC1` [Example 46, (1R,3S)-3-((((1R,3aS,5aR,5bR,7aR,9S,11aR,11bR,13aR,13bR)-3a-(4-(4-ethylpiperazin-1-yl)piperidine-1-carbonyl)-5a,5b,8,8,11a-pentamethyl-1-(1-methylcyclopropyl)icosahydro-1H-cyclopenta[a]chrysen-9-yl)oxy)carbonyl)-2,2-dimethylcyclobutane-1-carboxylic acid]: the inhibition at 0.1 µM in the series on HIV-1 strain 92HT599 (setting [2]) was 100%. In addition, the inhibition at 1 µM in the series on HIV-1 strain 92HT599 (setting [3]) was 100%. In series [1], this compound gave a viability at 100 nM of 100% and a viability at 1000 nM of 90%.
For `CC(C)(C)OC(=O)N1CCN(C(=O)[C@]23CC[C@@H](C4(C)CC4)[C@@H]2[C@H]2CC[C@@H]4[C@@]5(C)CC[C@H](OC(=O)CC(C)(C)C(=O)O)C(C)(C)[C@@H]5CC[C@@]4(C)[C@]2(C)CC3)CC1` [Example 37], the inhibition at 0.1 µM with HIV-1 strain 92HT599 (setting [2]) is 30%. In addition, in the series on HIV-1 strain 92HT599 (setting [3]), the inhibition at 1 µM is 99%. In series [1], this compound registered a viability at 100 nM of 73% and a viability at 1000 nM of 72%.
In the case of `COCCOCCOC1CCN(C(=O)[C@]23CC[C@@H](C4(C)CC4)[C@@H]2[C@H]2CC[C@@H]4[C@@]5(C)CC[C@H](OC(=O)[C@H]6C[C@@H](C(=O)O)C6(C)C)C(C)(C)[C@@H]5CC[C@@]4(C)[C@]2(C)CC3)CC1` [Example 44, (1R,3S)-3-((((1R,3aS,5aR,5bR,7aR,9S,11aR,11bR,13aR,13bR)-3a-(4-(2-(2-methoxyethoxyl)ethoxy)piperidine-1-carbonyl)-5a,5b,8,8,11a-pentamethyl-1-(1-methylcyclopropyl)icosahydro-1H-cyclopenta[a]chrysen-9-yl)oxy)carbonyl)-2,2-dimethylcyclobutane-1-carboxylic acid], the inhibition at 0.1 µM in the series on HIV-1 strain 92HT599 (setting [2]) was 97%. Also, in the series with HIV-1 strain 92HT599 (setting [3]), the inhibition at 1 µM is 100%. In series [1], this compound showed a viability at 100 nM of 93% and a viability at 1000 nM of 86%.
Take `COCCOCCOC1CCN(C(=O)[C@]23CC[C@@H](C4(C)CC4)[C@@H]2[C@H]2CC[C@@H]4[C@@]5(C)CC[C@H](OC(=O)CC(C)(C)C(=O)O)C(C)(C)[C@@H]5CC[C@@]4(C)[C@]2(C)CC3)CC1` [Example 43, 4-(((1R,3aS,5aR,5bR,7aR,9S,11aR,11bR,13aR,13bR)-3a-(4-(2-(2-methoxyethoxyl)ethoxy)piperidine-1-carbonyl)-5a,5b,8,8,11a-pentamethyl-1-(1-methylcyclopropyl)icosahydro-1H-cyclopenta[a]chrysen-9-yl)oxy)-2,2-dimethyl-4-oxobutanoic acid]: the inhibition at 0.1 µM with HIV-1 strain 92HT599 (setting [2]) was 99%. For the same compound, in the series with HIV-1 strain 92HT599 (setting [3]), the inhibition at 1 µM was 99%. In series [1], this compound registered a viability at 100 nM of 100% and a viability at 1000 nM of 100%.
As to `CC(C)(CC(=O)O[C@H]1CC[C@]2(C)[C@H]3CC[C@@H]4[C@H]5[C@H](C6(C)CC6)CC[C@]5(C(=O)N5CCN(C(=O)C(C)(CO)CO)CC5)CC[C@@]4(C)[C@]3(C)CC[C@H]2C1(C)C)C(=O)O` [Example 35], the inhibition at 0.1 µM with HIV-1 strain 92HT599 (setting [2]) is 26%. For the same compound, the inhibition at 1 µM in the series on HIV-1 strain 92HT599 (setting [3]) was 84%. In series [1], this compound returned a viability at 100 nM of 70% and a viability at 1000 nM of 81%.
With `C=C(C)[C@@H]1CC[C@]2(c3nnc(-c4cccnc4)o3)CC[C@]3(C)[C@H](CC[C@@H]4[C@@]5(C)CC[C@H](OC(=O)[C@H]6[C@@H](CC(=O)O)C6(C)C)C(C)(C)[C@@H]5CC[C@]43C)[C@@H]12` [Example 6, 2-((1R,3S)-2,2-dimethyl-3-(((1R,3aS,5aR,5bR,7aR,9S,11aR,11bR,13aR,13bR)-5a,5b,8,8,11a-pentamethyl-1-(prop-1-en-2-yl)-3a-(5-(pyridin-3-yl)-1,3,4-oxadiazol-2-yl)icosahydro-1H-cyclopenta[a]chrysen-9-yloxy)carbonyl)cyclopropyl)aceticacid], the inhibition at 0.1 µM in the series with HIV-1 strain 92HT599 (setting [2]) was 85%. For the same compound, the inhibition at 1 µM in the series with HIV-1 strain 92HT599 (setting [3]) was 92%. Moreover, in series [1], the viability at 100 nM was 94% and the viability at 1000 nM is 87%.
For `CC(C)(CC(=O)O)CC(=O)O[C@H]1CC[C@]2(C)[C@H]3CC[C@@H]4C5[C@H](C6(C)CC6)CC[C@]5(C(=O)N[C@H]5C[C@@H](C(=O)N6CCOCC6)C5(C)C)CC[C@@]4(C)[C@]3(C)CC[C@H]2C1(C)C` (stereo partly drawn) [Example 52, 5-(((1R,3aS,5aR,5bR,7aR,9S,11aR,11bR,13aR)-3a-(((1S,3R)-2,2-dimethyl-3-(morpholine-4-carbonyl)cyclobutyl)carbamoyl)-5a,5b,8,8,11a-pentamethyl-1-(1-methylcyclopropyl)icosahydro-1H-cyclopenta[a]chrysen-9-yl)oxy)-3,3-dimethyl-5-oxopentanoic acid] the same measures were 100%, 100%, 95% and 85%.
For `C=C(C)[C@@H]1CC[C@]2(c3nnc(-c4ccccc4)o3)CC[C@]3(C)[C@H](CC[C@@H]4[C@@]5(C)CC[C@H](OC(=O)[C@H]6[C@@H](CC(=O)O)C6(C)C)C(C)(C)[C@@H]5CC[C@]43C)[C@@H]12` [Example 5, 2-((1R,3S)-2,2-dimethyl-3-(((1R,3aS,5aR,5bR,7aR,9S,11aR,11bR,13aR,13bR)-5a,5b,8,8,11a-pentamethyl-3a-(5-phenyl-1,3,4-oxadiazol-2-yl)-1-(prop-1-en-2-yl)icosa hydro-1H-cyclopenta[a]chrysen-9-yloxy)carbonyl)cyclopropyl)acetic acid], the inhibition at 0.1 µM in the series with HIV-1 strain 92HT599 (setting [2]) is 49%. For the same compound, in the series with HIV-1 strain 92HT599 (setting [3]), the inhibition at 1 µM is 92%. Further, in series [1], the viability at 100 nM amounted to 95% and the viability at 1000 nM worked out at 98%.
For `[2H]C([2H])([2H])C(N1CCN(C(=O)[C@H]2C[C@@H](NC(=O)[C@]34CC[C@@H](C(=C)C)[C@@H]3[C@H]3CC[C@@H]5[C@@]6(C)CC[C@H](OC(=O)CC(C)(C)C(=O)O)C(C)(C)[C@@H]6CC[C@@]5(C)[C@]3(C)CC4)C2(C)C)CC1)C([2H])([2H])[2H]` [Example 8, 4-((1R,3aS,5aR,5bR,7aR,9S,11aR,11bR,13aR,13bR)-3a-((1R,3S)-3-(4-(1-methylethyl-2,2,2,1′,1′,1′-D6)piperazine-1-carbonyl)-2,2-dimethylcyclobutylcarbamoyl)-5a,5b,8,8,11a-pentamethyl-1-(prop-1-en-2-yl)icosahydro-1H-cyclopenta[a]chrysen-9-yloxy)-2,2-dimethyl-4-oxobutanoic acid] the same measures were 100%, 100%, 90% and 97%.
For the compound `[2H]C([2H])([2H])C(N1CCN(C(=O)[C@]23CC[C@@H](C(=C)C)[C@@H]2[C@H]2CC[C@@H]4[C@@]5(C)CC[C@H](OC(=O)CC(C)(C)C(=O)O)C(C)(C)[C@@H]5CC[C@@]4(C)[C@]2(C)CC3)CC1)C([2H])([2H])[2H]` [Example 7, 4-((1R,3aS,5aR,5bR,7aR,9S,11aR,11bR,13aR,13bR)-3a-(4-(1-methylethyl-2,2,2,1′,1′,1′-D6)piperazine-1-carbonyl)-5a,5b,8,8,11a-pentamethyl-1-(prop-1-en-2-yl)icosahydro-1H-cyclopenta[a]chrysen-9-yloxy)-2,2-dimethyl-4-oxobutanoic acid], in the series on HIV-1 strain 92HT599 (setting [4]), the inhibition at 0.1 µM was 98% and the inhibition at 1 µM is 97%. The viability at 100 nM in series [1] (100 nM, MT2 cells, MTT, read-out: Cytotoxicity % viability 100 nM) stood at 99%. For the same compound, the viability at 1000 nM in series [1] (1000 nM, MT2 cells, MTT, read-out: Cytotoxicity % viability 1000 nM) turned out to be 96%.
For the compound `C=C(C)[C@@H]1CC[C@]2(C(=O)N3CCN(CC)CC3)CC[C@]3(C)[C@H](CC[C@@H]4[C@@]5(C)CC[C@H](OC(=O)[C@H]6[C@@H](CC(=O)O)C6(C)C)C(C)(C)[C@@H]5CC[C@]43C)[C@@H]12` [Example 19, 2-((1R,3S)-3-(((1R,3aS,5aR,5bR,7aR,9S,11aR,11bR,13aR,13bR)-3a-(4-ethylpiperazine-1-carbonyl)-5a,5b,8,8,11a-pentamethyl-1-(prop-1-en-2-yl)icosahydro-1H-cyclopenta[a]chrysen-9-yloxy)carbonyl)-2,2-dimethylcyclopropyl)aceticacid], in the series with HIV-1 strain 92HT599 (setting [2]), the inhibition at 0.1 µM is 91%. Further, the inhibition at 1 µM with HIV-1 strain 92HT599 (setting [3]) was 95%. Further, in series [1], the viability at 100 nM was determined as 100% and the viability at 1000 nM is 100%.
